From patent US20220315967A1, “METHODS FOR PRODUCING D-TRYPTOPHAN AND SUBSTITUTED D-TRYPTOPHANS” (priority 2019, published 2022)
Where two headings read alike, the source gives them in different places.

Key:
IvoA = molecular target: T1, IvoA (Emericella nidulans, UniProt C8V7P4); experiment: Biocatalytic stereoinversion or deracemization of tryptophan and substituted tryptophans by IvoA (chiral-HPLC); assay type: biochemical, Aspergillus nidulans; conditions: for ee (%): ee of D-enantiomer, 1.5 mM substrates, 5 μM IvoA, 5 mM ATP, 10 mM MgCl2, 100 mM K2HPO4 buffer, pH 7.5
T1 construct: The full-length wild-type IvoA and mutants were expressed in S. cerevisiae JHY686 strain; octahistidine (His8) (N); made in house; host or cells: Saccharomyces cerevisiae JHY686
Procedure: […] The solvent was removed in vaccuo by speedvac and the residue was dissolved in ethanol and analyzed by chiral-HPLC by using a Crownpak® CR(+) column (150 mm×4 mm×3.5 μm, Daicel) at room temperature. The mobile phase was aq. HClO4 1% (w/v) supplemented with 15% (v/v) MeOH and the flow rate was 1.0 ml/min.

IvoA A domain = molecular target: T2, IvoA A domain (Emericella nidulans, UniProt C8V7P4, S785A); experiment: Hydroxylamine-based colorimetric adenylation assay; assay type: biochemical, Aspergillus nidulans
T2 construct: The full-length wild-type IvoA and mutants were expressed in S. cerevisiae JHY686 strain; octahistidine (His8) (N); made in house; host or cells: Saccharomyces cerevisiae JHY686
Procedure: FIG. 9 provides data showing Hydroxylamine-based colorimetric assay for studying substrate specificity of IvoA A domain. The reaction condition is 2 μM of IvoA-T^0+3 mM of ATP+0.1 mM of carboxylic acid substrate+15 mM hydroxylamine+15 mM MgCl2 in Tris buffer (pH 8.0). The reaction is quenched after 3 hrs by addition of equivalent volume (150 μL) of stopping solution (10% (w/v) FeCl3.H2O and 3.3% (w/v) trichloroacetic acid dissolved in 0.7 M HCl). The precipitated enzyme was removed by centrifugation and the supernatant was measured for its absorbance at 540 nm.
FIG. 19 provides data showing Adenylation assay of IvoA A domain with substituted tryptophan amino acids. The reaction was performed similarly according to the assay described in the caption of FIG. 9.

IvoA-C = molecular target: T3, IvoA-C (Emericella nidulans, UniProt C8V7P4); experiment: Thioesterase assay of standalone IvoA-C with synthetic thioester substrates; assay type: biochemical, Aspergillus nidulans; conditions: pH 6.9, boiled enzyme control
T3 construct: were incubated with standalone IvoA C domain at pH 6.9; hexahistidine (His6) with TEV protease site (N); made in house; host or cells: E. coli BL21(DE3)
Procedure: FIG. 17 provides data and associated schematics for an In vitro assay of IvoA-C with synthetic thioester substrates. Synthetic thioester substrates (DL-tryptophan-S—N-acetylcysteamine, DL-Trp-SNAC: D-tryptophan-S-pantatheine, D-Trp-pant) were incubated with standalone IvoA C domain at pH 6.9. Enzymes were boiled to measure the nonenzymatic hydrolysis. Free tryptophan and tryptophanyl thioesters were separated by HPLC.
The thioesterase activity assay of standalone IvoA-C was performed in ammonium acetate buffer (20 mM, pH=6.9). Typically, 5 mM synthetic substrate (5% DMSO) was incubated with 50 μM enzyme. The reaction was analyzed by HPLC. Boiled enzyme was used as control to measure the background nonenzymatic hydrolysis.

[1] = enzyme >50 μM, overnight incubation
Procedure: The reaction condition is 100 μM of IvoA+2 mM of ATP+1 mM of L-tryptophan+1 mM of AcCoA+5 mM MgCl2 in phosphate buffer (pH 7.5).
Acetyltryptophan acetyltransferase activity was performed by incubating 1-100 μM IvoA with 1 mM D-tryptophan or other substrates with 1 mM acetyl-CoA or 1 mM acetyl-phosphate in 100 mM phosphate buffer (pH 7.5). The reaction mixture was incubated at room temperature and the reaction was quenched at different time interval by mixing with 5-fold volume of methanol. The mixture was clarified by centrifugation to remove protein and salts, and the supernatant was dried in vaccuo by using speedvac. The residue was dissolved in methanol and subjected to LC-MS analysis. For ATP-dependent acetyltransferase activity, 1 mM LD-tryptophan, 5 mM ATP, 1 mM CoA and 5 mM MgCl2 were used.

[2] = Apparent steady-state kinetics of L-tryptophan stereoinversion by IvoA and mutants (chiral-HPLC quantification of D-tryptophan); assay type: biochemical, Aspergillus nidulans; conditions: for kcat^app / Km: L-tryptophan stereoinversion; for Km: read-out: Km^app
Procedure: FIG. 11 provides data showing the Apparent steady-state kinetics of IvoA catalyzed stereoinversion. […] The kinetic constants were shown in the main text. For WT, 1 μM enzyme was used in each assay and the reaction was quenched after 2 min. For E0 mutant, 10 μM enzyme was used in each assay and the reaction was quenched after 60 min. For C0 mutant, 50 μM enzyme was used in each assay and the reaction was quenched after 60 min.
Chiral-resolution allowed us to determine the apparent steady-state kinetics by quantifying D-tryptophan formation (Table 1, FIG. 11). […] Both E and C domains are catalytically important for IvoA, as inactivating either domain by mutating the catalytic histidine residues (H963A and H1428A) substantially compromised the apparent turnover number kcat (420-fold by E^0 while 4700-fold by C^0).
The ATP-dependent stereoinversion activity was typically performed with 2-5 μM IvoA, 1 mM L/D-tryptophan, 3 mM ATP and 10 mM MgCl2 in 100 mM phosphate buffer (pH 7.5), and the reaction was quenched by mixing with 5-volume of methanol. The solvent was removed in vaccuo by speedvac and the residue was dissolved in ethanol and analyzed by chiral-HPLC by using a Crownpak® CR(+) column (150 mm×4 mm×3.5 μm, Daicel) at room temperature. The mobile phase was aq. HClO4 1% (w/v) supplemented with 15% (v/v) MeOH and the flow rate was 1.0 ml/min.

T1 sequence (C8V7P4 other isoform, or with tags, fused parts or gaps): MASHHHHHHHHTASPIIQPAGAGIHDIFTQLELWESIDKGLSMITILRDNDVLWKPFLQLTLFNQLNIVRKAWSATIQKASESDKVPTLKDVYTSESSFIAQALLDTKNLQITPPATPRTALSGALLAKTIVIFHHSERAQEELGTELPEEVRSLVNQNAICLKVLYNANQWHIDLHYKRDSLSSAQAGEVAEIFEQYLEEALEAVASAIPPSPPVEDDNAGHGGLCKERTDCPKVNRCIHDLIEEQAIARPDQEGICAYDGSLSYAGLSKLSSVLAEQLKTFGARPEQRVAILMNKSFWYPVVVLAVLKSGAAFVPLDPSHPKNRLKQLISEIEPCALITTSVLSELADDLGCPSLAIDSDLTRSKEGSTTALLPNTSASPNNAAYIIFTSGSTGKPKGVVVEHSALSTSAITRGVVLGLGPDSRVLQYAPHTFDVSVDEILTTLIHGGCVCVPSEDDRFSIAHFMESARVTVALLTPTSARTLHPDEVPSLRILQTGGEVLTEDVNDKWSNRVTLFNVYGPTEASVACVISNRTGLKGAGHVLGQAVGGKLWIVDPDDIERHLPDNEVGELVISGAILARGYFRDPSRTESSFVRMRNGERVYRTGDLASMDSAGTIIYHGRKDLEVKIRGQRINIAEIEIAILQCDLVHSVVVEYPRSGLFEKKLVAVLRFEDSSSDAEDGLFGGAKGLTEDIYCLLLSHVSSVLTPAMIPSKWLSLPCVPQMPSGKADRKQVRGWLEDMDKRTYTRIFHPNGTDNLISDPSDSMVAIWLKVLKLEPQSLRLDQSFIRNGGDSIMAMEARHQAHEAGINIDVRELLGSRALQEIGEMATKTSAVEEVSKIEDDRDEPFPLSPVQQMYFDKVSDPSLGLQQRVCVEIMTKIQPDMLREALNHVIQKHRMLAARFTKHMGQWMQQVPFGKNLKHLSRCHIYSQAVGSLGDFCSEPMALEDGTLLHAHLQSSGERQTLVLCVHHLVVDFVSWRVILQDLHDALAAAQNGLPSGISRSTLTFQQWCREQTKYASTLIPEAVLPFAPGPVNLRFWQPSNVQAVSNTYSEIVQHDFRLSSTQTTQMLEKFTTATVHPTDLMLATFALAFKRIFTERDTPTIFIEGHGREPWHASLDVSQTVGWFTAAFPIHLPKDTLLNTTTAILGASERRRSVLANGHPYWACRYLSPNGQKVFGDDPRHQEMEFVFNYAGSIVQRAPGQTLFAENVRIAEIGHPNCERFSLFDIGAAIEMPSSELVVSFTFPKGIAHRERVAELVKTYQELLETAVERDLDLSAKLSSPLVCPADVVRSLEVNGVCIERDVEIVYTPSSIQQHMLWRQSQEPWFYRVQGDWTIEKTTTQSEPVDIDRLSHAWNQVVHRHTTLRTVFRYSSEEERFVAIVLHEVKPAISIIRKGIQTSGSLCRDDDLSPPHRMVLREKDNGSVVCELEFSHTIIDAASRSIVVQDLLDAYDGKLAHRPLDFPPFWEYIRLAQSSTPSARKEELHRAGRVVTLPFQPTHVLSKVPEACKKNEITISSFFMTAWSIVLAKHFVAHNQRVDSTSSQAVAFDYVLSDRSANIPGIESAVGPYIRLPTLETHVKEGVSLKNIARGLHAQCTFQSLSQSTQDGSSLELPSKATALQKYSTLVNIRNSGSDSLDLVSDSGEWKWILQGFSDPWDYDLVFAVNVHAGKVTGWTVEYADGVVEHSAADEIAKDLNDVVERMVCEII
T3 sequence (C8V7P4 1325-1477): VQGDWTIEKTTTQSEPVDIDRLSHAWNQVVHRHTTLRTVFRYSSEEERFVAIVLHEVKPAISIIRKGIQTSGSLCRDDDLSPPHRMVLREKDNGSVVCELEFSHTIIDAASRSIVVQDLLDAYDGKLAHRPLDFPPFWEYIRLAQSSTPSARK
T2 sequence (C8V7P4 whole entry S785A): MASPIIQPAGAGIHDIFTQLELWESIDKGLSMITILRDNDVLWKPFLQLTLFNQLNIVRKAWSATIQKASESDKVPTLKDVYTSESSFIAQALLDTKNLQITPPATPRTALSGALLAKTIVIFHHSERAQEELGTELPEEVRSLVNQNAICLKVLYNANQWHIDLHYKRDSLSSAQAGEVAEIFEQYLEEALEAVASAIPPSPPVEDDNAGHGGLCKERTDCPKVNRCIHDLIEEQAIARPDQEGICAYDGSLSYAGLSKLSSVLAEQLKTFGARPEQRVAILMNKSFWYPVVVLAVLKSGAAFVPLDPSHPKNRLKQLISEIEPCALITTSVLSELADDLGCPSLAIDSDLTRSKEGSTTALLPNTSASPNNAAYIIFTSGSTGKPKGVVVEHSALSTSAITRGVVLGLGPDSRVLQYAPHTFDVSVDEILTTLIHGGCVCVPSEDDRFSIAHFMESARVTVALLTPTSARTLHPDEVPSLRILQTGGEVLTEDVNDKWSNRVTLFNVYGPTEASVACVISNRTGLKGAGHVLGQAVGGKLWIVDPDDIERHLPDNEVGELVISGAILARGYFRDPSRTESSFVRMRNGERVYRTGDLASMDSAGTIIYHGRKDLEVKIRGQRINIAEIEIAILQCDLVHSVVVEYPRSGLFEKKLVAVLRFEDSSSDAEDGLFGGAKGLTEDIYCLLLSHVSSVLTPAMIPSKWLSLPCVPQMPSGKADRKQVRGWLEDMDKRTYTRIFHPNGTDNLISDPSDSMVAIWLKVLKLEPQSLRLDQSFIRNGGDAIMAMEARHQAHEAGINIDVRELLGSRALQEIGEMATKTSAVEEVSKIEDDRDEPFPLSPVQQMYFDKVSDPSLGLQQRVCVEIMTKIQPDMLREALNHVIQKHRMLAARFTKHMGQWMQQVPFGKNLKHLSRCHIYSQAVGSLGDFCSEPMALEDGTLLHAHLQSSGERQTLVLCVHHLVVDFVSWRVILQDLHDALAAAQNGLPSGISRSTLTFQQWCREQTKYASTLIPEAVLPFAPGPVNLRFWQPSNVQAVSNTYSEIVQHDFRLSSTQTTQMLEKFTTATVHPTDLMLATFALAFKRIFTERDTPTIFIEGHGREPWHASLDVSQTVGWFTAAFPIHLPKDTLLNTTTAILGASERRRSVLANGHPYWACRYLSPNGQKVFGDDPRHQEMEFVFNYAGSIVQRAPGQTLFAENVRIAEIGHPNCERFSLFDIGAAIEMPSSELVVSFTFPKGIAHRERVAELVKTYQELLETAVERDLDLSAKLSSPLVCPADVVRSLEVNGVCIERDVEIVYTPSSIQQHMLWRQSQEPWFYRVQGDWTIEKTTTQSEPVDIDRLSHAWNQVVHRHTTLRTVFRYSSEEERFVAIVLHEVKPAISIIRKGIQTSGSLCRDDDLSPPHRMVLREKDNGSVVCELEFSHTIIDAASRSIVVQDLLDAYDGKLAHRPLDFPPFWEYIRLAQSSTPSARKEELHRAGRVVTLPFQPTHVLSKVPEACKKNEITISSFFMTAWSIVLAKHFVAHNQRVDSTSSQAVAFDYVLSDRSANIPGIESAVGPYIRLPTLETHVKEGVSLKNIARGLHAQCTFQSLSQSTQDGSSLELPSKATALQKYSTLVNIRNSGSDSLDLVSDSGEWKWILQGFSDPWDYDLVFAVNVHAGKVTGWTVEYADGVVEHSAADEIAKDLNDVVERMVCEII

Compound: Cc1ccc2[nH]cc(CC(N)C(=O)O)c2c1 (stereo not shown) [Entry 15]
- ee (%) (IvoA): >99%

Compound: NC(Cc1c[nH]c2ccc(F)cc12)C(=O)O (stereo not shown) [Entry 6]
- ee (%) (IvoA): >99%

Compound: NC(Cc1c[nH]c2cccc(F)c12)C(=O)O (stereo not shown) [Entry 5]
- ee (%) (IvoA): >99%

Compound: COc1ccc2[nH]cc(C[C@H](N)C(=O)O)c2c1 [Entry 2, 5-OMe-L-tryptophan]
- ee (%) (IvoA): >99%

Compound: N#Cc1ccc2[nH]cc(CC(N)C(=O)O)c2c1 (stereo not shown) [Entry 3]
- conversion by IvoA / substrate quality (IvoA): poor substrates
- ee (%) (IvoA): 63%

Compound: NC(Cc1c[nH]c2c(Br)cccc12)C(=O)O (stereo not shown) [Entry 12]
- conversion by IvoA / substrate quality (IvoA): poor substrates
- ee (%) (IvoA): 87%

Compound: N[C@@H](Cc1c[nH]c2ccccc12)C(=O)O [Entry 1, L-tryptophan]
- time to complete conversion of L-tryptophan to D-tryptophan (IvoA; 1 mM L-tryptophan, chiral-HPLC): 3 h
- ee (%) (IvoA): >99%
- activation by A domain (IvoA A domain): preferred substrate

Compound: Cc1cccc2[nH]cc(CC(N)C(=O)O)c12 (stereo not shown) [Entry 14]
- ee (%) (IvoA): >99%

Compound: N[C@H](Cc1c[nH]c2ccccc12)C(=O)O [D-tryptophan]
- conversion by IvoA / substrate quality (IvoA): cannot convert

Compound: CC(=O)NCCSC(=O)C(N)Cc1c[nH]c2ccccc12 (racemic) [DL-Trp-SNAC, DL-tryptophan-S—N-acetylcysteamine]
- hydrolysis by IvoA-C versus nonenzymatic (IvoA-C): not good substrate

Compound: NC(Cc1c[nH]c2ccc([N+](=O)[O-])cc12)C(=O)O (stereo not shown) [Entry 4]
- conversion by IvoA / substrate quality (IvoA): poor substrates
- ee (%) (IvoA): 44%

Compound: Cc1[nH]c2ccccc2c1CC(N)C(=O)O (racemic) [Entry 13, 2-Me-DL-tryptophan]
- conversion by IvoA / substrate quality (IvoA): No conversion
- ee (%) (IvoA): 1.3%
- activation by A domain (IvoA A domain): inefficient activation

Compound: NC(Cc1c[nH]c2cc(F)ccc12)C(=O)O (stereo not shown) [Entry 7]
- ee (%) (IvoA): >99%

Compound: NC(Cc1c[nH]c2ccc(Cl)cc12)C(=O)O (stereo not shown) [Entry 8]
- ee (%) (IvoA): >99%

Compound: CC(C)(CO)[C@@H](O)C(=O)NCCC(=O)NCCSC(=O)[C@H](N)Cc1c[nH]c2ccccc12 [D-Trp-pant, D-tryptophan-S-pantatheine]
- hydrolysis by IvoA-C versus nonenzymatic (IvoA-C): not good substrate

Compound: NC(Cc1c[nH]c2ccc(Br)cc12)C(=O)O (stereo not shown) [Entry 10]
- ee (%) (IvoA): >99%

Compound: WT: wild-type single-module nonribosomal peptide synthetase IvoA from Aspergillus nidulans
- kobs^app of N-acetyl-D-tryptophan formation [1]: < 0.1 h⁻¹
- kcat^app [2]: 0.633 ± 0.05 s⁻¹
- kcat^app ([2]; listed as IvoA): 0.633 s⁻¹
- Km ([2]; listed as IvoA): ~50 µM
- Km [2]: 50 ± 10 µM
- Ki ([2]; substrate inhibition by L-tryptophan, read-out: Ki^app (substrate inhibition)): 4 mM

Compound: NC(Cc1c[nH]c2cc(Cl)ccc12)C(=O)O (stereo not shown) [Entry 9]
- ee (%) (IvoA): 98%

Compound: NC(Cc1c[nH]c2cc(Br)ccc12)C(=O)O (stereo not shown) [Entry 11]
- conversion by IvoA / substrate quality (IvoA): poor substrates
- ee (%) (IvoA): 75%

Compound: Cc1cccc2c(CC(N)C(=O)O)c[nH]c12 (stereo not shown) [Entry 17]
- ee (%) (IvoA): >99%

Compound: Cc1ccc2c(CC(N)C(=O)O)c[nH]c2c1 (stereo not shown) [Entry 16]
- ee (%) (IvoA): 97%
